Laboratory results from US20220127297A1, “Novel Antibacterial 3"-Derivatives Of 4,6-Disubstituted 2,5-Dideoxystreptamine Aminoglycoside Antibiotics” (AGILeBiotics B.V., priority 2018, published 2022).
Read-outs that look alike come from different tables or passages of the source.

Experiments:
Test in all cases: MIC determination at University Medical Center Groningen
Type in all cases: cell-based
[1] = system: clinical isolates of Acinetobacter baumannii (and ATCC17978)
Text: (§1) 3.4.3 MIC Determination at University Medical Center Groningen (the Netherlands)
(§2) Tested reference compounds. Amikacin sulfate (Cat. No. 01693, Chem-Impex), Gentamicin sulfate (Cat. No. G4918, Sigma Aldrich).
(§3) Bacterial strains/isolates. Pseudomonas aeruginosa ATCC 27853, Escherichia coli ATCC 25922, Klebsiella pneumonia ATCC43816, Acinetobacter baumannii ATCC17978, 9 clinical isolates of Klebsiella pneumonia (origin: 4 unknown, 3 urine, 1 sputum, 1 catheter tip), 7 clinical isolates of Pseudomonas aeruginosa (origin: 3 unknown, 1 wound, 1 catheter, 1 faeces, bronco alveolar liquid=BAL), 8 clinical isolates of Escherichia coli (origin: 2 bile liquid, 2 rectum, 1 throat, 2 blood culture, 1 sputum), 4 clinical isolates of Acinetobacter baumannii (origin: 2 blood culture, 1 sputum, 1 bone).
(§4) Culture media and equipment. As indicated by EUCAST guidelines (European Committee on Antimicrobial Susceptibility Testing (EUCAST); Media preparation for EUCAST disk diffusion testing and for determination of MIC values by the broth microdilution method; Version 5.0, 2017), Mueller Hinton Broth, CM0405, (Oxoid) was used for the broth micro-dilutions; and Mueller Hinton Agar, CM0337, (Oxoid) was used for the plating on agar. The testing assays were conducted in 96-well plates, with U-bottom shape (Greiner Bio-one); All bacteria strains/isolates used were handled in a Laminar flow, Clean Air (Baker). A CO2 incubator commercialized by Sanyo was used. Finally, spectrophotometer measurements were conducted using a Synergy 2 Multi-detection Microplate Reader (BioTek).
(§5) Compound preparation. The compounds were weighed and dissolved into MilliQ water. These concentrated stock aliquots were then further diluted to reach the desired testing concentrations. Serial dilutions were made in order to achieve the ten desired final concentrations for the tested compounds, that ranged between 64-0.125 μg/mL. The concentrations were calculated in respect to the 150 μL of final volume used for each of the 96-wells. Of these dilutions, 100 μL was added in each testing well of a sterile 96-well plate. All compound dilutions were plated in triplicate, while duplicates were used for the two reference antibiotics.
(§6) Inoculum preparation. The clinical isolates were revived from Luria Bertani medium storage at −80° C. by plating them overnight on MH agar plates. The following day, a few colonies were picked and inoculated in small glass bottles containing 10 mL MH broth. Growth was subsequently allowed for approx. 3 hours, at 35° C. with 250 rpm shaking, until the isolates reached late logarithmic growth phase. At this point culture solutions were prepared with an OD600 (optical density measured at 600 nm; measured using Synergy 2 Multi-detection Microplate Reader; BioTek) of 0.05. […] 50 μL of culture suspension was added to each of the wells of the 96 well plate previously loaded with the desired antibiotic/medium solution, reaching a final total volume of 150 μL per well. As controls, blanks of the MH medium and of culture were added to the 96-well plate. Plates were incubated in a plate incubator in static conditions at 35° C. for 18 hours.
(§7) MIC determination. After the incubation time, the MIC value was determined by visual inspection of bacterial growth within 96-well plates. The first column in which there was no visible growth of bacteria was determined as the MIC90 value for the compound tested in that particular row. Additionally, spectrophotometer readouts at 600 nm were recorded for each well.
(§8) MIC90. The MIC90 of a compound was assigned at which no visible growth of bacteria was determined.

[2] = system: clinical isolates of Escherichia coli (and ATCC 25922)
Text: as §1, §2, §3, §4, §5, §6, §7, §8

[3] = system: clinical isolates of Klebsiella pneumonia (and ATCC43816); settings: Klebsiella pneumoniae
Text: as §1, §2, §3, §4, §5, §6, §7, §8

[4] = system: clinical isolates of Pseudomonas aeruginosa (and ATCC 27853)
Text: as §1, §2, §3, §4, §5, §6, §7, §8

In the case of `N=C(N)NC1C(O)[C@@H](CO)OC(OC2C(F)[C@H](O[C@H]3OC(CN)[C@@H](O)CC3N)C(N)C[C@H]2NC(=O)[C@@H](O)CCN)[C@@H]1O` (stereo partly drawn) [ABX5006, Tobra-AHB-F-Gua], the MIC90 ([1]; ATCC17978, A. baumannii ATCC17978 strain, broth micro-dilution (CLSI)) is reported as under 0.125 µg/mL, the MIC90 ([1]; ATCC17978, A. baumannii clinical isolate AB-2, Multidrug-resistant, origin Sputum) is reported as 0.5 to 1 µg/mL and the MIC90 ([1]; ATCC17978, A. baumannii clinical isolate AB-10, Multidrug-resistant, origin Blood culture) is reported as 0.5 to 1 µg/mL. For the same compound, the MIC90 ([1]; ATCC17978, A. baumannii clinical isolate AB-14, Multidrug-resistant, origin Blood culture) was 0.5 to 1 µg/mL, the MIC90 ([1]; ATCC17978, A. baumannii clinical isolate AB-18, Multidrug-resistant, origin Bone) was 2 to 4 µg/mL and the MIC90 ([2]; ATCC25922, E. coli ATCC25922 strain, broth micro-dilution (CLSI)) was 0.5 µg/mL. It also gave an MIC90 ([2]; ATCC25922, E. coli clinical isolate EC-11, Multidrug-resistant, origin Throat) of 0.5 µg/mL, an MIC90 ([2]; ATCC25922, E. coli clinical isolate EC-12, Multidrug-resistant, origin Rectum) of 2 µg/mL and an MIC90 ([2]; ATCC25922, E. coli clinical isolate EC-22, Multidrug-resistant, origin Sputurn) of 4 µg/mL. The MIC90 ([2]; ATCC25922, E. coli clinical isolate EC-25, Multidrug-resistant, origin Bile liquid) was 4 µg/mL, the MIC90 ([2]; ATCC25922, E. coli clinical isolate EC-26, Multidrug-resistant, origin Bile liquid) was 4 µg/mL and the MIC90 ([2]; ATCC25922, E. coli clinical isolate EC-40, Multidrug-resistant, origin Blood culture) was 2 µg/mL. It also gave an MIC90 ([2]; ATCC25922, E. coli clinical isolate EC-43, Multidrug-resistant, origin Rectum) of 4 µg/mL, an MIC90 ([2]; ATCC25922, E. coli clinical isolate EC-46, suceptible, origin Blood culture) of 2 µg/mL and an MIC90 ([3]; ATCC43816, K. pneumoniae ATCC43816 strain, broth micro-dilution (CLSI), read-out: MIC 90) of 0.25 µg/mL. The MIC90 ([3]; ATCC43816, K. pneumoniae clinical isolate KP-107, KPC/Pandrug-resistant, origin Urine, read-out: MIC 90) was 8 µg/mL, the MIC90 ([3]; ATCC43816, K. pneumoniae clinical isolate KP-108, KPC/Pandrug-resistant, origin Urine, read-out: MIC 90) was 8 µg/mL and the MIC90 ([3]; ATCC43816, K. pneumoniae clinical isolate KP-109, KPC/Pandrug-resistant, origin Catheter tip, read-out: MIC 90) was 16 µg/mL. It also gave an MIC90 ([3]; ATCC43816, K. pneumoniae clinical isolate KP-110, KPC/Pandrug-resistant, origin Sputum, read-out: MIC 90) of 8 µg/mL, an MIC90 ([3]; ATCC43816, K. pneumoniae clinical isolate KP-111, KPC/Pandrug-resistant, origin Urine, read-out: MIC 90) of 8 µg/mL and an MIC90 ([3]; ATCC43816, K. pneumoniae clinical isolate KP-113, KPC/Pandrug-resistant, origin unkown) of 4 µg/mL. It also gave an MIC90 ([4]; ATCC27853, P. aeruginosa ATCC27853 strain, broth micro-dilution (CLSI), read-out: MIC 90) of 0.25 µg/mL, an MIC90 ([4]; ATCC27853, P. aeruginosa clinical isolate PA-179, Multidrug-resistant, origin Wound, read-out: MIC 90) of 2 to 4 µg/mL and an MIC90 ([4]; ATCC27853, P. aeruginosa clinical isolate PA-195, Multidrug-resistant, origin Catheter, read-out: MIC 90) of 0.5 to 1 µg/mL. It also gave an MIC90 ([4]; ATCC27853, P. aeruginosa clinical isolate PA-198, Multidrug-resistant, origin unkown) of 1 to 2 µg/mL, an MIC90 ([4]; ATCC27853, P. aeruginosa clinical isolate PA-202, Multidrug-resistant, origin Faeces, read-out: MIC 90) of 0.25 to 0.5 µg/mL and an MIC90 ([4]; ATCC 27853 / BAL, P. aeruginosa clinical isolate P4-171, Pandrug-resistant, origin BAL, read-out: MIC 90) of 8 µg/mL.
